Experimental data: patent US20070259939A1, “USING NALTREXONE AS A MULTI-PURPOSE HEALTH SUPPLEMENT TO IMPROVE THE HUMAN CONDITION AND PREVENTING MULTIPLE DISEASES AND INFIRMITIES BY STIMULATING IMMUNE SYSTEM VITALITY AND ROBUSTNESS” (ACCELERATED TECHNOLOGIES, priority 2006, published 2007)

What was measured:
alcohol cravings = experiment: inhibition of alcohol cravings by low dose naltrexone; assay type: in vivo, human
From the text: Naltrexone is already known to help cure addictive behaviors, such as alcoholism, opiate, narcotic and tobacco addiction. With respect to the treatment of alcohol addiction, naltrexone may be effective because it eliminates the neural positive reinforcement normally experienced in the brain by blocking the receptors that provide the stimulatory effect felt from alcohol. As a result of the lack of positive reinforcement, there is no internal incentive to drink alcohol. In a similar manner, in another embodiment of the invention, the daily administration of low dose naltrexone may greatly reduce or eliminate the tendency to engage in addictive behavior by preventing its onset. This may be accomplished by diminishing any potential internal rewards for using chemical substances in the first place. […] The diminished desire for alcohol resulting from a low dose of naltrexone may be effective for more than 24 hours, thus for example a dose administered at 7:00 pm one evening may continue to inhibit alcohol cravings throughout the following evening. A person in need of curbing an alcoholic appetite may take a pill, either before or along with the drink, and discover no desire for a second or third drink. To further eliminate an alcoholic appetite, a series of 1.5 mg naltrexone doses may be taken without alcohol, starting for example at about 6:00 pm.

cancer patients = settings: low dose naltrexone; cited from earlier work
beta-endorphins = settings: small doses each night; following days; patients who initially had deficient endorphin levels; cited from earlier work
[1] = low dose levels; cited from earlier work

## O=C1CC[C@@]2(O)[C@H]3Cc4ccc(O)c5c4[C@@]2(CCN3CC2CC2)[C@H]1O5 [naltrexone]
Alcohol cravings; low dosage, around 4.5 mg
  effect on alcohol cravings: greatly inhibit alcohol cravings
Alcohol cravings; low dose of naltrexone
  duration of diminished desire for alcohol: more than 24 hours
Cancer patients
  cancer patients with a positive effect (for example stopping the spread of tumors): ≤ 65%
  cancer patients with remission: 30%
beta-endorphins
  increase in beta-endorphins circulating in the blood: 200-300%
[1]
  side effects: not known to have any important side effects
